Experimental findings from US20220275372A1, “CONJUGATE AND USES THEREOF” (priority 2019, published 2022) are described below.

Bounds are passed on as bounds.

For one series, the system named is human hepatocytes. The series can be described thus: Cell viability in human hepatocytes. Format: cell-based. The conditions noted are these: 40 μM. The procedure:
(§1) Cell culture and Peptide-PMO treatment. Immortalized myoblasts from healthy individual or DM1 patient with 2600 CTG repeats were cultivated in a growth medium consisting of a mix of M199:DMEM (1:4 ratio; Life technologies) supplemented with 20% FBS (Life technologies), 50 μg/ml gentamycin (Life technologies), 25 μg/ml fetuin, 0.5 ng/ml bFGF, 5 ng/ml EGF and 0.2 μg/ml dexamethasone (Sigma-Aldrich). Myogenic differentiation was induced by switching confluent cell cultures to DMEM medium supplemented with […] insulin (Sigma-Aldrich) for myoblasts. For treatment, WT or DM1 cells are differentiated for 4 days. Then, medium was changed with fresh differentiation medium with peptide-PMO conjugates at a 1, 2 ,5 10, 20 or 40 μM concentration. Cells were harvested for analysis 48 h after treatment. Cell viability was quantified in after 2 days of transfection of peptide-PMOs at 40 uM in human hepatocytes or at a 1, 2 ,5 10, 20 or 40 μM concentration in human myoblasts using a fluorescent-based assay (Promega).

Another series relates to human myoblasts. Put plainly: Cell viability in human myoblasts. It is filed as cell-based. The settings on record: 1-40 μM, 48 hours. As to the method: as §1
The test system of another series is WT mice. The series can be described thus: Recovery time after injection, WT mice. Format: in vivo, mouse. The settings on record: 30 mg/kg, age 8-12 weeks. As to the method: (§2) Animal model and ASO injections. Experiments were carried out in the University of Oxford or in the “Centre d'études fonctionnelles” (Faculté de Médecine Sorbonne University) according to UK and French legislation respectively (Ethics committee approval #1760-2015091512001083v6). The intravenous injections in HSA-LR or C57BL/6 mice were performed by single or multiple administrations via the tail vein. Doses of 5, 7.5, 12.5, 30 or 40 mg/kg of peptide-PMO-CAG7 and 12.5 or 200 mg/kg of PMO were diluted in 0.9% saline and given at a volume of 5-6 μL/g of body weight. Multiple injections were done at 2 weeks apart. Myotonia was evaluated and tissues were harvested 2 weeks after the last injection. For long-term experiments, tissues were harvested 3 months after the injection. For toxicology measurements, tissues were harvested after 1 week. Urine was tested by ELISAs (R&D cat# MKM100) with samples diluted to fit within standard curve. Values were normalised to urinary creatinine levels (Harwell) to account for urine protein concentration

The test system of a further series is mice. The series can be described thus: Mortality in mice. The conditions noted are these: mouse, in vivo.
A short description of series [1]: ELISA biodistribution of PMO in tissues of treated HSA-LR mice. It is filed as in vivo, mouse. The conditions noted are these: for delivery of PMO to muscle: 2 weeks after IV administration. As to the method:
Animal model and ASO injections. […] The intravenous injections in HSA-LR or C57BL/6 mice were performed by single or multiple administrations via the tail vein. […] Multiple injections were done at 2 weeks apart. Myotonia was evaluated and tissues were harvested 2 weeks after the last injection. For long-term experiments, tissues were harvested 3 months after the injection. For toxicology measurements, tissues were harvested after 1 week. Urine was tested by ELISAs (R&D cat# MKM100) with samples diluted to fit within standard curve. Values were normalised to urinary creatinine levels (Harwell) to account for urine protein concentration
ELISA based measurements of oligonucleotide concentrations in tissues. […] The probe was used to detect peptide-PMOs or naked PMO concentrations in eight different tissues (brain, kidney, liver, lung, heart, diaphragm, gastrocnemius and quadriceps) from treated HSA-LR mice.
(In general: In an ELISA, binding on a coated surface is turned into a signal by an enzyme label.)

For series [2], the system named is Mbnl-dependent transcripts (Clcn1 exon 7a, Serca exon22, Mbnl1 exon 5, Ldb3 exon11). Put plainly: RT-PCR splicing correction in muscle of HSA-LR mice. It is filed as in vivo, mouse. The settings on record: for splicing defects (clcn1 exon 7a, serca exon22, mbnl1 exon 5): 30 mg/kg IV, gastrocnemius and quadriceps of HSA-LR mice, two weeks after treatment; for splicing of Clcn1 exon 7a, Serca exon22, Mbnl1 exon 5 and Ldb3 exon11: 30 and 40 mg/kg, gastrocnemius of HSA-LR mice; for duration of splicing correction after treatment / splicing correction after single low doses: HSA-LR mice; for splicing correction after single low doses: single low doses (5 and 7.5 mg/kg). The procedure: as §2
RNA isolation, RT-PCR and qPCR analysis. For mice tissues: prior to RNA extraction, muscles were disrupted in TriReagent (Sigma-Aldrich) using Fastprep system and Lysing Matrix D tubes (MP biomedicals). For human cells: prior to RNA extraction, cells were lysed in a proteinase K buffer (500 mM NaCl, 10 mM Tris-HCl, pH 7.2, 1.5 mM MgCl2, 10 mM EDTA, 2% SDS and 0.5 mg/ml of proteinase K) for 45 min at 55° C. Total RNAs were isolated using TriReagent according to the manufacturer's protocol. One microgram of RNA was reverse transcribed using M-MLV first-strand synthesis system (Life Technologies) according to the manufacturer's instructions in a total of 20 μL. One microliter of cDNA preparation was subsequently used in a semi-quantitative PCR analysis according to standard protocol (ReddyMix, Thermo Scientific).
PCR amplification was carried out for 25-35 cycles within the linear range of amplification for each gene. PCR products were resolved on 1.5-2% agarose gels, ethidium bromide-stained and quantified with ImageJ software. The ratios of exon inclusion were quantified as a percentage of inclusion relative to total intensity of isoform signals. To quantify the mRNA expression, real-time PCR was performed according to the manufacturer's instructions. PCR cycles were a 15-min denaturation step followed by 50 cycles with a 94° C. denaturation for 15 s, 58° C. annealing for 20 s and 72° C. extension for 20 s.

Where [3] appears, read: 600 mg/kg (3 injections at 200 mg/kg) IV, 2 weeks post administration.

As for Ac-RXRRBRR-FQILY-RBRXR-B [Pip9b2-PMO], in the series with human hepatocytes, the “cell mortality in human hepatocytes” value is greater than 50%. In the series on human myoblasts, the “cell viability of human myoblasts” value was “induced cell mortality at lower doses”.
Consider Ac-RBRRBRRFQILYRBHBH-Ab [DPEP3.1a], for which the “recovery time after injection, time AV ± SD” value with WT mice was 10 min.
In the case of Ac-RXRRBRRXR-YQFLI-RXRBRXR-B [pip6a], in the series on human hepatocytes, the “cell mortality in human hepatocytes” value is listed as greater than 50%. The “cell viability of human myoblasts” value in the series on human myoblasts was “induced cell mortality at lower doses”. For the same substance, in the series with mice, the “dose that cannot be tested without causing high rates of mortality in mice” value is on record as greater than 20 mg/kg.
For the substance Ac-RBRRBRFQILYBRBR-B [DPEP1.9], the “delivery of PMO to muscle” value in series [1] is on record as “able to deliver the PMO to muscle successfully”. In addition, in series [2], the “splicing defects (clcn1 exon 7a, serca exon22, mbnl1 exon 5)” value is listed as “corrected to wild type levels”; the “splicing of Clcn1 exon 7a, Serca exon22, Mbnl1 exon 5 and Ldb3 exon11” value was “splicing normalization to wild type levels”; the “duration of splicing correction after treatment” value is on record as “at least 3 months”; the “splicing correction after single low doses” value is recorded as “significant”.
As to Ac-RBRRBRFQILYBRBR-E [DPEP1.9b], the “delivery of PMO to muscle” value in series [1] is “able to deliver the PMO to muscle successfully”. The “recovery time after injection, time AV ± SD” value in the series on WT mice turned out to be 15 min.
Ac-RBRRBRFQILYRBHBH-B [DPEP3.8]: in series [2], the “splicing defects (clcn1 exon 7a, serca exon22, mbnl1 exon 5)” value was “corrected to wild type levels”; the “splicing of Clcn1 exon 7a, Serca exon22, Mbnl1 exon 5 and Ldb3 exon11” value was “splicing normalization to wild type levels”; the “duration of splicing correction after treatment” value was “at least 3 months”; the “splicing correction after single low doses” value is listed as “significant”.
As for “CAGCAGCAGCAGCAGCAGCAG (all phosphorodiamidate morpholino (PMO); Cell-penetrating peptide conjugated to the 3' end in the conjugates, further chemistry not fully specified) [Naked PMO]”, in series [1] (setting [3]), the “pM in Tissue: Diaphragm” value amounted to 30 pM, the “pM in Tissue: Gastrocnemius” value was 18 pM, the “pM in Tissue: Heart” value was determined as 198 pM and the “pM in Tissue: Kidney” value was found to be 426748 pM. For the same substance, in series [1] (setting [3]), the “pM in Tissue: Liver” value was found to be 252 pM and the “pM in Tissue: Lung” value was determined as 113 pM. Moreover, the “PMO levels in all tissues tested” value in series [1] (3 injections at 200 mg/kg, 2 weeks post administration) is listed as “low to non-detectable levels”. Moreover, in series [1] (two weeks after 3x200 mg/kg naked PMO IV), the “PMO detected in muscle tissues” value is listed as “low pM”.
